From US20230241178A1, “LONG ACTING GLP-1/GIP DUAL AGONISTS” (SUN PHARMACEUTICAL INDUSTRIES LIMITED, priority 2020, published 2023)
Marks after values point to notes of the source that are not given here.

What was measured:
[1] = tested on: type 2 diabetic mouse (db/db) model; assay: Effect of Compound 2 and 7 on blood glucose, body weight and food consumption in mice, up to 72 hr (Tables 6, 7); type: in vivo; conditions: 10 nM/kg
Description: Similarly body weight changes and cumulative food consumption was measured at 72 hr post treatment.

GLP-1R = molecular target: T1, GLP-1R (Homo sapiens, UniProt P43220); assay: cAMP assay (cAMP Hunter eXpress GPCR Assay) on GLP-1R-expressing cells; type: cell-based; conditions: read-out: half-maximal effective concentration, cellular cAMP
T1 construct: host or cells: GLP-1R-expressing cells of the cAMP Hunter eXpress GPCR Assay kit
T1 sequence (P43220 24-463): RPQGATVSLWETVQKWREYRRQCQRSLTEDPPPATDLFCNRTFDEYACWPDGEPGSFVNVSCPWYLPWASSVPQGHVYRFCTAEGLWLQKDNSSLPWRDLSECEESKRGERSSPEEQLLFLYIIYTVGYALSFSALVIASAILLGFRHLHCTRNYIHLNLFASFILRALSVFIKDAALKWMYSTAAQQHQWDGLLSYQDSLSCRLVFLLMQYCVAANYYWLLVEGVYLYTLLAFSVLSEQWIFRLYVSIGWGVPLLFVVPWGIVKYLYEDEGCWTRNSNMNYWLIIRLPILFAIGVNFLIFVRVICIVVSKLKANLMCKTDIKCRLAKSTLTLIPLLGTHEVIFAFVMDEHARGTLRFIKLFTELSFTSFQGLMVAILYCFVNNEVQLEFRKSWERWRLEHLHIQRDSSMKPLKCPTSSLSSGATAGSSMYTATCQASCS
Description: (§1) In-vitro potency determination was performed using cAMP assay. G protein coupled receptor (GPCR) activation following ligand binding initiates a series of second messenger cascades that results in a cellular response. Signaling by the GLP-1R and GIP-R involves activation of adenylate cyclase and cAMP production. Cellular cAMP production was determined using the cAMP Hunter™ eXpress GPCR Assay (Eurofins DiscoveRx).

GIPR = molecular target: T2, GIPR (Homo sapiens, UniProt P48546); assay: cAMP assay (cAMP Hunter eXpress GPCR Assay) on GIPR-expressing cells; type: cell-based; conditions: read-out: half-maximal effective concentration, cellular cAMP
T2 construct: host or cells: GIPR-expressing cells of the cAMP Hunter eXpress GPCR Assay kit
T2 sequence (P48546 22-466): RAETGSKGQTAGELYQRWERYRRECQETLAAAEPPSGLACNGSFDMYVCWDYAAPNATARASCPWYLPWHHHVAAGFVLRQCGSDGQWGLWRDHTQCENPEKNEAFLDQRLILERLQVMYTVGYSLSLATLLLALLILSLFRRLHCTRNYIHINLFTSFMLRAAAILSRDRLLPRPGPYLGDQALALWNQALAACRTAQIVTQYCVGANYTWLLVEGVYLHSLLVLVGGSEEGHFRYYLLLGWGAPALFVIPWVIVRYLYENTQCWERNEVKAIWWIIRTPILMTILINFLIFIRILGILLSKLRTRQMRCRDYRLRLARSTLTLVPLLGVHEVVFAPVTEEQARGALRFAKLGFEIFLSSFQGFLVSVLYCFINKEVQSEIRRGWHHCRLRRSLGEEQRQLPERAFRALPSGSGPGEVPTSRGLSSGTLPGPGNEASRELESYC
Description: as §1

[2] = tested on: type 2 diabetic mouse (db/db) model; assay: Reduction of HbA1c in db/db type 2 diabetic mice after chronic treatment (HbA1c, insulin, triglycerides, food consumption, body weight); type: in vivo; conditions: 9 nM/kg and 18 nM/kg dose
[3] = tested on: type 2 diabetic mouse (db/db) model; assay: Effect on blood glucose, food intake and body weight, single s.c. dose 10 nM/kg, db/db mice (Tables 8, 9); type: in vivo; conditions: 10 nM/kg/s.c/single dose
Description: This study was performed in a type 2 diabetic mouse (db/db) model. […] Baseline blood glucose was measured from all the animals. All the animals were administered with test items subcutaneously. Blood glucose was measured at 4 hr, 12 hr, 24 hr, 48 hr, 72 hr and 96 hr post treatment. Delta blood glucose (mM) was calculated. Body weight changes and cumulative food consumption was measured at 96 hr post treatment. Similarly the effect of Compounds 11-15 on blood glucose, food intake and body weight was studied in a separate study except for Compound 13. The results are shown in Table 8 (effect on blood glucose) and Table 9 (effect on body weight and food consumption).

[4] = tested on: type 2 diabetic mouse (db/db) model; assay: Reduction of HbA1c in db/db type 2 diabetic mice after chronic treatment (HbA1c, insulin, triglycerides, food consumption, body weight); type: in vivo; conditions: for Cumulative Food Consumption Day 0-28 / Insulin / Triglycerides / Δ% HbA1c vs. DC / Body Weight (%) Day 28 vs. Baseline: db/db mice
Description: This study was performed in a type 2 diabetic mouse (db/db) model. […] All the treatments were injected subcutaneously every third day for 10 doses (q3d*10). % HbA1c, Insulin, Triglycerides levels were measured on Day 0, day 14 and day 28. Cumulative food intake from day 0-28 and % Change in body weight compared to day 0 was calculated on day 28.

[5] = tested on: type 2 diabetic mouse (db/db) model; assay: Reduction in blood glucose and effect on body weight and food intake, single dose, db/db mice (Tables 4, 5); type: in vivo
Description: The effect of Compounds of present invention on blood glucose was studied on mice. This study was performed in a type 2 diabetic mouse (db/db) model. […] Baseline blood glucose was measured from all the animals. All animals were administered with its respective test item subcutaneously. […] Delta blood glucose (mM) was calculated. Similarly body weight changes and cumulative food consumption was measured at 96 hr post treatment.

[6] = 6 nM/kg s.c., separate study n = 5

CC[C@H](C)[C@H](NC(=O)[C@H](CC(C)C)NC(=O)[C@H](Cc1c[nH]c2ccccc12)NC(=O)[C@H](CCC(N)=O)NC(=O)[C@@H](NC(=O)[C@H](Cc1ccccc1)NC(=O)[C@H](C)NC(=O)[C@H](CCCCNC(=O)COCCOCCNC(=O)C(C)(C)NC(=O)CC[C@H](NC(=O)CCCCCCCCCCCCCCCCCCC(=O)O)C(=O)O)NC(=O)[C@H](CCC(N)=O)NC(=O)[C@H](C)NC(=O)[C@@H](NC(=O)[C@H](CCCCN)NC(=O)[C@H](CC(=O)O)NC(=O)[C@H](CC(C)C)NC(=O)C(C)(C)NC(=O)[C@@H](NC(=O)[C@H](CO)NC(=O)[C@H](Cc1ccc(O)cc1)NC(=O)[C@H](CC(=O)O)NC(=O)[C@H](CO)NC(=O)[C@@H](NC(=O)[C@H](Cc1ccccc1)NC(=O)[C@@H](NC(=O)CNC(=O)[C@H](CCC(=O)O)NC(=O)C(C)(C)NC(=O)[C@@H](N)Cc1ccc(O)cc1)[C@@H](C)O)[C@@H](C)O)[C@@H](C)CC)[C@@H](C)CC)C(C)C)C(=O)N[C@@H](C)C(=O)NCC(=O)NCC(=O)N1CCC[C@H]1C(=O)N[C@@H](CO)C(=O)N[C@@H](CO)C(=O)NCC(=O)N[C@@H](C)C(=O)N1CCC[C@H]1C(=O)N1CCC[C@H]1C(=O)N1CCC[C@H]1C(=O)N[C@@H](CO)C(N)=O [Compound 2]
time for which efficacy on blood glucose was maintained [1]: 72 h | % Body wt. change 72 hr. vs. 0 hr., Mean ([1]; mice, n = 8): −7.2*** % | Cumulative Food Consumption (0-72 hr) (g), Mean ([1]; mice, n = 8): 8.4*** g | Delta Blood Glucose (mM), Mean ([1]; 4 hr post treatment, mice, n = 8): -15.6 mM | Delta Blood Glucose (mM), Mean ([1]; 8 hr post treatment, mice, n = 8): -16.3 mM | Delta Blood Glucose (mM), Mean ([1]; 12 hr post treatment, mice, n = 8): -16.0 mM | Delta Blood Glucose (mM), Mean ([1]; 24 hr post treatment, mice, n = 8): -14.6 mM | Delta Blood Glucose (mM), Mean ([1]; 72 hr post treatment, mice, n = 8): -4.1 mM | EC50 (GLP-1R): 4.1 nM | EC50 (GIPR): 2.3 nM | reduction in HbA1c on day 29 more than the reduction on day 14 [2]: more than 40% | Delta Blood Glucose (mM), Mean ([3]; 0 hr (baseline)): 0.0 mM | Body Wt. Change (%) 96 hr. vs. Baseline, Mean [3]: −4.2*** % | Cumulative food Intake (g) 96 hr. vs. Baseline, Mean [3]: 12.3*** g | blood glucose reduction post treatment (in words) [3]: statistically significant blood glucose reduction | Delta Blood Glucose (mM), Mean ([3]; 4 hr post treatment): −13.1*** mM | Delta Blood Glucose (mM), Mean ([3]; 12 hr post treatment): −11.7*** mM | Delta Blood Glucose (mM), Mean ([3]; 24 hr post treatment): −8.2*** mM | Delta Blood Glucose (mM), Mean ([3]; 48 hr post treatment): −6.0** mM | Delta Blood Glucose (mM), Mean ([3]; 72 hr post treatment): -2.8 mM | Delta Blood Glucose (mM), Mean ([3]; 96 hr post treatment): 0.6 mM | insulin levels compared to the diabetic control group (in words) ([4]; 9 nM/kg, day 14): statistically significant increase in insulin levels | triglycerides compared to the diabetic control group (in words) ([4]; 4.5, 9 and 18 nM/kg): statistically significant lowering of triglycerides | change in HbA1c compared to the diabetic control (in words) ([4]; 4.5, 9 and 18 nM/kg, day 14 and 28th day): statistically significant change in HbA1c | body weight compared to the diabetic control group (in words) ([4]; 4.5, 9 and 18 nM/kg, day 28): statistically significant decrease in body weight | cumulative food consumption compared to the diabetic control group (in words) ([4]; 4.5, 9 and 18 nm/kg, course of the study): statistically significant reduction in cumulative food consumption | Cumulative Food Consumption Day 0-28 ([4]; 4.5 nM/kg s.c. q3d*10): 112.4 | Cumulative Food Consumption Day 0-28 ([4]; 9 nM/kg s.c. q3d*10): 111.8 | Cumulative Food Consumption Day 0-28 ([4]; 18 nM/kg s.c. q3d*10): 89.5 | Insulin ([4]; Day 14, 4.5 nM/kg s.c. q3d*10): 34.75 ng/mL | Triglycerides ([4]; Day 14, 4.5 nM/kg s.c. q3d*10): 218.7 mg/dL | Δ% HbA1c vs. DC ([4]; Day 14, 4.5 nM/kg s.c. q3d*10): −2.43*** % | Insulin ([4]; Day 14, 9 nM/kg s.c. q3d*10): 69.63 ng/mL | Triglycerides ([4]; Day 14, 9 nM/kg s.c. q3d*10): 169.8 mg/dL | Δ% HbA1c vs. DC ([4]; Day 14, 9 nM/kg s.c. q3d*10): −2.90*** % | Insulin ([4]; Day 14, 18 nM/kg s.c. q3d*10): 75.09 ng/mL | Triglycerides ([4]; Day 14, 18 nM/kg s.c. q3d*10): 172.4 mg/dL | Δ% HbA1c vs. DC ([4]; Day 14, 18 nM/kg s.c. q3d*10): −3.04*** % | Body Weight (%) Day 28 vs. Baseline ([4]; Day 28, 4.5 nM/kg s.c. q3d*10): −7.0% | Insulin ([4]; Day 28, 4.5 nM/kg s.c. q3d*10): 33.44 ng/mL | Triglycerides ([4]; Day 28, 4.5 nM/kg s.c. q3d*10): 208.9 mg/dL | Δ% HbA1c vs. DC ([4]; Day 28, 4.5 nM/kg s.c. q3d*10): −3.64*** % | Body Weight (%) Day 28 vs. Baseline ([4]; Day 28, 9 nM/kg s.c. q3d*10): −8.9% | Insulin ([4]; Day 28, 9 nM/kg s.c. q3d*10): 53.87 ng/mL | Triglycerides ([4]; Day 28, 9 nM/kg s.c. q3d*10): 147.4 mg/dL | Δ% HbA1c vs. DC ([4]; Day 28, 9 nM/kg s.c. q3d*10): −4.19*** % | Body Weight (%) Day 28 vs. Baseline ([4]; Day 28, 18 nM/kg s.c. q3d*10): −9.3% | Insulin ([4]; Day 28, 18 nM/kg s.c. q3d*10): 76.93 ng/mL | Triglycerides ([4]; Day 28, 18 nM/kg s.c. q3d*10): 144.3 mg/dL | Δ% HbA1c vs. DC ([4]; Day 28, 18 nM/kg s.c. q3d*10): −4.25*** % | Cumulative Food Intake (g) 0-96 hr, Mean ([5]; 3 nM/kg s.c., n = 6 study): 14.6*** g | Body Weight Change (%) 96 hr., Mean ([5]; 3 nM/kg s.c., n = 6 study): −5*** % | Cumulative Food Intake (g) 0-96 hr, Mean [5, 6]: 18.2 g | Body Weight Change (%) 96 hr., Mean [5, 6]: −0.9% | Delta Blood Glucose (mM), Mean ([5]; 4 hr post treatment, @ 3 nM s.c., n = 6 study): -12.6 mM | Delta Blood Glucose (mM), Mean ([5]; 4 hr post treatment, @ 6 nM s.c., separate study n = 5): −14.4*** mM | Delta Blood Glucose (mM), Mean ([5]; 12 hr post treatment, @ 3 nM s.c., n = 6 study): -10.6 mM | Delta Blood Glucose (mM), Mean ([5]; 12 hr post treatment, @ 6 nM s.c., separate study n = 5): −18.0*** mM | Delta Blood Glucose (mM), Mean ([5]; 24 hr post treatment, @ 3 nM s.c., n = 6 study): -8.3 mM | Delta Blood Glucose (mM), Mean ([5]; 24 hr post treatment, @ 6 nM s.c., separate study n = 5): −16.9*** mM | Delta Blood Glucose (mM), Mean ([5]; 48 hr post treatment, @ 3 nM s.c., n = 6 study): -7.3 mM | Delta Blood Glucose (mM), Mean ([5]; 48 hr post treatment, @ 6 nM s.c., separate study n = 5): −8.9*** mM | Delta Blood Glucose (mM), Mean ([5]; 72 hr post treatment, @ 3 nM s.c., n = 6 study): -4.7 mM | Delta Blood Glucose (mM), Mean ([5]; 72 hr post treatment, @ 6 nM s.c., separate study n = 5): 0.1 mM | Delta Blood Glucose (mM), Mean ([5]; 96 hr post treatment, @ 3 nM s.c., n = 6 study): -0.3 mM | Delta Blood Glucose (mM), Mean ([5]; 96 hr post treatment, @ 6 nM s.c., separate study n = 5): 2.1 mM
